The record followed here is a melting point compilation (Tetko et al.; mined from patent text by program, amines drawn as free bases though some values may be those of a salt).

Bounds are passed on as bounds.

What is called melting point is the temperature, or range, at which the solid turns liquid. `Cc1noc(C2C(=O)Nc3cc(Cl)ccc3C2=O)n1` (centres undefined) returned a melting point of more than 320 °C. Turning to `CCC(=O)c1cc(C2(c3cccc(-c4cccnc4F)c3)N=C(N)N(C)C2=O)cs1` (centres undefined), the melting point lay within 98 to 112 °C. Turning to `CC(C)(CO)NCc1ccccc1`, the melting point was in the range of 46 to 47 °C. In turn, `Cc1cn(-c2ccc(N)c(C)c2)c(C)n1` gave a melting point of 92 to 96 °C. `[N-]=[N+]=Nc1cc(Cl)nc(-c2ccc([N+](=O)[O-])o2)n1` returned a melting point of 114 to 116 °C.

`CSC(=NCCSCc1ncccc1O)NC#N`: the melting point lay within 192 to 194 °C. `CS(=O)(=O)c1ccc(C2=C(c3ccc(C(F)(F)F)cc3)CCC2)cc1`: the melting point lay within 134 to 135 °C. `COc1ccc([N+](=O)[O-])c(C2OCCO2)c1OC` gave a melting point of 74 to 76 °C. Regarding `CCCCn1c(CCOC)nc2c(N)nc3ccccc3c21`, the melting point lay in the range of 149 to 151 °C. Turning to `CN[C@@]1(C)CCN(c2c(-c3cccc(F)c3)c(C)c(C#N)c3nc(C(=O)N(C)C)oc23)C1`, the melting point fell in the range of 178 to 180 °C. The value for `CNC(=O)c1cc2c(Oc3ccc(Br)cc3)cncc2s1` was 78 to 80 °C. For the compound `O=C(O)c1cc(=O)c2cc([N+](=O)[O-])ccc2s1`, the melting point stood at 220 °C. For the compound `NC(=O)c1[nH]cnc1OC(=O)c1ccccc1C(=O)OCc1ccccc1`, the melting point was in the range of 122 to 124 °C. On to `CCCNCC(=O)Nc1ccc2c(c1)C(=O)c1cc(NC(=O)CNCCC)ccc1C2=O`, for which the melting point amounted to 143 °C. Take `CCC(=O)N1CCSc2cccc(Cl)c2C1`: the melting point lay within 55 to 57 °C. The compound `C=CCNC(=O)NNC(=O)c1cccnc1` showed a melting point of 165 to 167 °C. `CCCc1c(OCCOCCOc2c(C(C)=O)ccc(OCC(=O)O)c2CCC)ccc(C(C)=O)c1O` displayed a melting point of 96 to 99 °C. The compound `Cc1cc2cn[nH]c2c(C(=O)NC(C)C)c1NC(=O)c1cc(OCC(F)(F)F)nn1-c1ncccc1Cl` yielded a melting point of 247 to 250 °C. `Cc1c(NC(=O)C(CSC(=O)c2cccs2)Cc2ccccc2)cccc1C(=O)O` (centres undefined) came in with a melting point of 164 to 167 °C. The value for `CC1(C)OCc2c1nc1ccccc1c2Cl` was 108 to 110 °C; that for `Cc1cc(O)nc(C(Cl)(Cl)Cl)n1` was 173 to 174 °C.

For the compound `CON1C(C)(C)CC(OC(=O)c2ccc(C(=O)OC3CC(C)(C)N(OC)C(C)(C)C3)cc2)CC1(C)C`, the melting point was 179 to 181 °C. For `O=c1ccn([C@@H]2C[C@H](O)[C@@H](O)[C@H]2O)c(=O)[nH]1` (racemic), the melting point fell in the range of 229 to 230 °C. To `CNC(=O)c1cc(Oc2ccc(N)c(F)c2)ccn1` belongs 140 to 141 °C. `Cc1cc(Nc2ncnc3ccn(CCNC(=O)C(C)(C)C)c23)ccc1Oc1cccc2sncc12` yielded a melting point of 189 to 191 °C.

`COc1ccc(CN(C)CCOc2ccc(NC(=O)c3cccc4c(=O)c5ccccc5[nH]c34)cc2)cc1OC` gave a melting point of 140 °C. The value for `COc1cccc(-c2nnc(-c3ccoc3)o2)c1` was 70 to 71 °C; that for `N#CC(C#N)=CN(N=C(C#N)C#N)c1ccc(C#N)cc1` was 231 °C; that for `C=CCCCn1ncc2c(N)c(C(=O)OCC=C)c(C)nc21` was 62 to 62.5 °C. For the compound `Cc1nc(-c2cccc(NC(=O)N3CCc4c(cnc5[nH]nc(Br)c45)C3)c2)no1`, the melting point is more than 152 °C. `COc1ccc(C(O)c2ccccn2)c(Cl)c1Cl` (centres undefined) had a melting point of 174 to 176 °C. In turn, `O=C(O)c1cc(-c2ccc(C(F)(F)F)cc2)c2c3c(ccc2c1)OCO3` yielded a melting point of 207 to 209 °C. The compound `CCCCCNc1nc(N(C)Cc2ccccc2)c2ncn(CC(=O)O)c2n1` displayed a melting point of 134 to 142 °C. The value for `CCc1cccc2c(C=O)cc(OC)c(O)c12` was 114 to 115 °C; that for `COC(=O)C(C(=O)OC)c1ccc(C(=O)O)cc1[N+](=O)[O-]` was 147 to 149 °C; that for `CC1=C(N)C(C)C2CC(C)(CC3CCN(c4ccc(-n5ccnc5)cc4)CC3)OC2=C1C` (centres undefined) was 170 to 172 °C. `O=C(O)CC1CCCc2c1n(Cc1ccc(Cl)cc1)c1c(F)cccc21` (centres undefined): the melting point was 94 to 94.5 °C. The value for `N#Cc1c[nH]c2ccc([N+](=O)[O-])cc12` was 186 to 190 °C; that for `N#Cc1ccc(NC(=O)c2cccc(OCc3cc(F)cc(F)c3)c2)cc1` was 185 to 187 °C. Consider `CCCn1c(=O)c(N)nc2ccccc21`, for which the melting point lay within 191 to 192 °C.

The compound `Cn1c(=O)c(Oc2ccc(F)cc2F)cc2cnc(Cl)cc21` showed a melting point of 168 to 170 °C. To `Cc1ccc(C(=O)NC(NC(=O)Nc2ccccc2)C(Cl)(Cl)Cl)cc1` (centres undefined) belongs 230 to 233 °C; to `COC(=O)c1cnc(OC)c([N+](=O)[O-])c1`, 118 to 119 °C. Turning to `CC(C)=CCN1Cc2cccc3[nH]c(=S)n(c23)CC1C` (centres undefined), the melting point came out at 128 °C. Take `CC(=O)c1ccc2c(c1)OC(C(=O)O)CO2` (centres undefined): the melting point lay in the range of 167 to 168 °C.

`COc1cc2c(cc1OC)CN(CCCOc1ccc(N)cc1)CC2` showed a melting point of 100 °C. The value for `CN(C)c1nc(=O)c(C(C)(C)C)nn1N` was 168 to 169 °C; that for `CC(=O)Nc1cccc2c1Cc1ccccc1C2=O` was 266 °C; that for `O=C(NCC12CC3CC(CC(C3)C1)C2)c1cc(-c2cc(F)c(F)cc2C(=O)O)ccc1Cl` was 121 to 125 °C. `Nc1nc2c(ncn2CCC(COCc2ccccc2)COCc2ccccc2)c(=O)[nH]1` displayed a melting point of 210 to 224 °C. In the case of `COc1cc(CCCCCCCC2OC(=O)NC2=O)ccc1OCc1nc(-c2ccccc2)oc1C` (centres undefined), the melting point was 109 to 111 °C.

The compound `N#Cc1ccc(N2CCC(C(N)=O)CC2)c2ccccc12` registered a melting point of 249 to 250 °C. The value for `O=C(O)C1=Cc2ccc(C(F)(F)F)cc2OC1C(F)(F)F` (centres undefined) was 190 to 194 °C; that for `COc1ccnc(CCc2nc3cc(-c4ccc(S(=O)(=O)N5CCC(C)CC5)cc4)cnc3[nH]2)c1` was 186 to 188 °C; that for `Cc1cccc(C)c1NC(=O)C(C)N1CSCC1=O` (centres undefined) was 153 to 154 °C. To `N#Cc1nn(-c2c(Cl)cc(C(F)(F)F)cc2Cl)c(N)c1C#N` belongs 221 to 222 °C. In the case of `c1cc2c3c(c[nH]c3c1)CC1NCCCC21` (centres undefined), the melting point fell in the range of 170 to 173 °C. Consider `CCCC(=O)N(CC)c1cccc(-c2ccc3nnc(C)n3n2)c1`, for which the melting point is 127 to 129 °C. For the compound `CCOC(=O)c1ccc(Cl)nn1`, the melting point is 145 to 150 °C. `Cc1ccccc1-c1cccc(C=NNC(=S)NN2CCCC2)n1`: the melting point lay within 172 to 173 °C. The compound `O=C(O)c1ccc(S(=O)(=O)Oc2ccc(-c3ccc(-c4c(Cc5ccccc5)oc5ccccc45)cc3)cc2[N+](=O)[O-])cc1O` came in with a melting point of 75 °C. In turn, `COc1ccc(Cc2nnsc2-c2cccs2)cc1` yielded a melting point of 72.2 to 73.3 °C. To `CC(=O)OC1(C(C)CN(C)C)CCCCC1c1ccccc1` (single isomer, unassigned; (-)) belongs 63 to 66 °C; to `NCc1cc(Cl)ccc1O`, 160 to 162 °C. Consider `COc1cc(-c2nc(NNC(=O)c3cc4c(C)c(C)ccc4n3CCCC#N)nn2CCC2CCCCC2)c(OC)cc1Cl`, for which the melting point was determined as 178 °C.

With `O=C(c1ccc(-c2ccn(C(=O)Cc3ccc(Cl)cc3Cl)n2)cc1)N1Cc2cccn2Cc2ccccc21`, the melting point is 130 to 140 °C. To `CCOC(=O)c1cnc2sc(S(=O)(=O)Cc3ccccc3)nn2c1=O` belongs 200 to 203 °C; to `CCCCc1nc2ccccc2n1Cc1ccc(-c2ccccc2C(=O)O)cc1`, 225 to 227 °C; to `COc1ccc(COc2nn(Cc3ccccc3)cc2CO)cc1OCc1nc(-c2ccco2)oc1C`, 108 to 109 °C. The compound `CCCCN(CC)C(=O)c1cnc2c3c(ccc2c1)C(=O)C(C(=O)O)C=N3` (centres undefined) registered a melting point of 236 to 237 °C. The value for `CC1(C)C(=O)C(c2ccccc2)=C1c1ccc(S(N)(=O)=O)cc1` was 142 to 144 °C; that for `CC(C)(C)OC(=O)N1CCC(c2nc3cc(-c4ccc(-n5cnnn5)cc4)ccc3o2)CC1` was 207 to 211 °C; that for `COc1ccc(Sc2ccc3c(c2)CC[C@H]2NC(=O)CC[C@]32C)cc1` was 194 to 196 °C.

As to `CN1CC=C(c2cn(C)c3ccc(NS(C)(=O)=O)cc23)CC1`, the melting point was 198 to 202 °C. Compound `c1ccc(-n2c3ccccc3c3cc4c(cc32)c2ccccc2n4-c2ccccc2)cc1` had a melting point of 306 °C. To `c1csc(-c2ccc3nncn3n2)c1` belongs 155 to 159 °C. The value for `COc1ccc(COc2ccc(-c3ccc(C#N)c(=O)[nH]3)cc2OC)cc1OC` was 220 to 221 °C; that for `Clc1ccc(-c2ccc[nH]2)cc1Cl` was 49 to 51 °C. Compound `O=c1[nH]c2ccc(S(=O)(=O)N(CCO)CCO)cc2[nH]c1=O` had a melting point of 272 to 276 °C. The compound `O=C1NC(=C2CCCCC2)Sc2ccccc21` showed a melting point of 146 to 147 °C. The value for `COC(=S)NC[C@H]1CN(c2cc(F)c(N3CNC(=O)C3)c(F)c2)C(=O)O1` was 199 °C; that for `COc1cc(C(C)(C)O)cc(Br)c1O` was 107 to 112 °C. `CS(=O)c1ccnc(-c2nc(=O)c3ccccc3s2)c1` (centres undefined) registered a melting point of 205 to 206 °C. The value for `O=C(NCCCn1ccnc1)c1ccccc1NS(=O)(=O)c1ccc(I)cc1` was 162 to 166 °C. `COC(=O)c1cc([N+](=O)[O-])c(C)s1`: the melting point was 81 °C. Compound `N#CCc1cccc(C(=O)c2ccc(Cl)cc2)c1` gave a melting point of 86 to 90 °C. Take `COC(=O)C(C)Oc1ccc(Nc2cc(NC(C)=O)c(F)cc2[N+](=O)[O-])cc1` (centres undefined): the melting point lay in the range of 126 to 128 °C. With `O=[N+]([O-])c1ccc(-c2n[nH]c3c2Cc2ccccc2-3)cc1`, the melting point lay within 267 to 270 °C. `CCCCN(Cc1ccc(-c2ccccc2-c2nnnn2C(c2ccccc2)(c2ccccc2)c2ccccc2)cc1)c1ncccc1C(=O)OCC` registered a melting point of 90 to 94 °C.
